The source of these data is patent publication US20040266766A1, “Selective urokinase inhibitors” (Wilex AG, priority 2001, published 2004).

For one data set, the system named is mouse mammary carcinoma. The note with it: cited from earlier work.
The next data set has as its system rat prostate carcinoma. The note with it: syngenic model for rat prostate carcinoma; cited from earlier work.
For another data set, the system named is Caco-2 cell monolayers. Put plainly: Caco-assay: transport across Caco-2 cell monolayers. The format is in vitro ADME, human. As to conditions: for % amount in the basolateral compartment: 10 μg/ml apical, four hours. The method in brief:
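Caco-2 monolayers grown three weeks on 0.4 μm polycarbonate filters; compounds applied apically at 10 μg/ml in HBSS/30 mM HEPES pH 7.2 for 4 h. Apical and basolateral samples quantified by scintillation counting, integrity checked by TEER; triplicate experiments.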

In data set [1] the target is T1, Plasmin (Homo sapiens, UniProt P00747). Briefly: In vitro inhibition of plasmin (Ki according to Dixon). The format is biochemical. The protocol: (§1) In order to determine the inhibitory activity, 200 μl Tris buffer (0.05 mol/l containing the inhibitor, 0.154 mol/l NaCl, pH 8.0), 25 μl substrate (Pefachrome uPA, Pefachrome PL or Pefabloc TH in H2O; Pentapharm Ltd, Basle, Switzerland) and 50 μl urokinase (Calbiochem-Novabiochem GmbH, Bad Soden, Germany) or another appropriate protease e.g. plasmin, thrombin or FXa are incubated for 10 minutes at 30° C. After ca. 30 minutes and 30 cycles the absorption is determined at 405 nm by means of a microplate reader (Mediators PHL, Aureon Biosystems, Vienna, Austria). The Ki values were determined according to Dixon by linear regression using a computer program.
T1 sequence (P00747 581-810 limits assumed, species assumed): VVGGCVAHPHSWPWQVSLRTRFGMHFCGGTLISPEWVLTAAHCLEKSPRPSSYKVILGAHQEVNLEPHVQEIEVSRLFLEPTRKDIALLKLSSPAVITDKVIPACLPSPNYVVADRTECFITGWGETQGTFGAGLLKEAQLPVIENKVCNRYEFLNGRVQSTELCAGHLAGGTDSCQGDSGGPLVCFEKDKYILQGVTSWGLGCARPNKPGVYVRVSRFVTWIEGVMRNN
T1 sequence (P00747 97-580 partner limits assumed, species assumed): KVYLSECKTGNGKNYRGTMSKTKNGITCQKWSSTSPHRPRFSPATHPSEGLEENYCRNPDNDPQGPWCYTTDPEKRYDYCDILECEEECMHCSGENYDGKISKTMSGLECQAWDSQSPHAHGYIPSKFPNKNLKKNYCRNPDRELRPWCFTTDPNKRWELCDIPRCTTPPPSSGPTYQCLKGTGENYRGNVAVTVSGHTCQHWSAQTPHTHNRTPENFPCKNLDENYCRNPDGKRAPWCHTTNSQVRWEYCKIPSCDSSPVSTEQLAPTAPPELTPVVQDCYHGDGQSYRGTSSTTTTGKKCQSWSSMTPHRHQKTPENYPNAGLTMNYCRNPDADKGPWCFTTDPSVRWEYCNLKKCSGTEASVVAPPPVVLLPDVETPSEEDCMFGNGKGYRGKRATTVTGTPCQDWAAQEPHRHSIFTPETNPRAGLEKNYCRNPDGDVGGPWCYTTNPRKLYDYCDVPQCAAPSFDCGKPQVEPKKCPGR

For data set [2], the target named is T1, Plasmin. Put plainly: In vitro inhibition of plasmin by WX-508 (Example 15). The format is biochemical. As for the experimental part: (§2) In order to determine the uPA inhibitory activity, 200 μl Tris-buffer (0.05 mol/l containing the inhibitor, 0.154 mol/l NaCl, pH 8.0), 25 μl substrate (Pefachrome uPA or BZ-O-Ala-Gly-Arg-pNA in H2O; Pentapharm Ltd., Basle, Switzerland) and 50 μl urokinase (Calbiochem-Novabiochem GmbH, Bad Soden, Germany) or another appropriate protease are incubated at 30° C. After ca. 30 minutes and 30 cycles the absorption is determined at 405 nm by means of a microplate reader (Mediators PHL, Aureon Biosystems, Vienna, Austria). The Ki values were determined according to Dixon by linear regression using a computer program.

A further data set addresses PK (Homo sapiens, UniProt P03952). Briefly: In vitro inhibition of PK (Ki). Format: biochemical. As to conditions: summary table. As for the experimental part: as §1
Data set [3] has as its target T2, Thrombin (Homo sapiens, UniProt P00734). Briefly: In vitro inhibition of thrombin by WX-508 (Example 15). Format: biochemical. The protocol:
as §2

A short description of data set [4]: Oral bioavailability and plasma kinetics in mice (serum concentration). The format is in vivo, Balb/c mice. The note with it: mouse; for concentration at 20 min / concentration at 40 min / concentration at 60 min: female, Balb/c, serum, po; for concentration at 20 min: sample at 20 minutes; for concentration at 40 min: sample at 40 minutes; for concentration at 60 min: sample at 60 minutes; for c in the serum 1st analysis / c in the serum 2nd analysis: 10 mg/kg i.v.

For another data set, the target named is T3, urokinase (Homo sapiens, UniProt P00749).
T3 construct: purchased Calbiochem-Novabiochem GmbH, Bad Soden, Germany
Briefly: In vitro inhibition of urokinase by WX-508 (Example 15). Format: biochemical. As for the experimental part:
as §2

The target of data set [5] is T2, Thrombin. Put plainly: In vitro inhibition of thrombin (Ki according to Dixon). Format: biochemical. The method in brief:
(§3)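 Chromogenic read-out in 0.05 mol/l Tris, 0.154 mol/l NaCl, pH 8.0, with inhibitor, substrate (Pefachrome uPA, Pefachrome PL or Pefabloc TH) and protease, incubated 10 min at 30 °C. Absorbance at 405 nm was read after ca. 30 min (30 cycles). Ki was derived by Dixon linear regression.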

For another data set, the target named is T4, urokinase (uPA) (Homo sapiens, UniProt P00749).
T4 construct: purchased Calbiochem-Novabiochem GmbH, Bad Soden, Germany
Put plainly: In vitro inhibition of urokinase (Ki according to Dixon, chromogenic substrate). The format is biochemical. Put shortly: as §3

Another data set deals with FXa (Homo sapiens, UniProt P00742). Briefly: In vitro inhibition of FXa (Ki according to Dixon). The format is biochemical. Put shortly: as §3
FXa, sequence (P00742 235-488 limits assumed): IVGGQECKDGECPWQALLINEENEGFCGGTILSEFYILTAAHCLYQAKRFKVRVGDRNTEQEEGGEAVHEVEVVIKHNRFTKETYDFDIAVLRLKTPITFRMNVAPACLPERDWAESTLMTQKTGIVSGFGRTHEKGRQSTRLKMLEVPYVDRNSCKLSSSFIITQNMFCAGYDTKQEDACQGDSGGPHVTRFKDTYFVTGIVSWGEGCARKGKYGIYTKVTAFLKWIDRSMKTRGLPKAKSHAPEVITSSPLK
FXa, sequence (P00742 41-179 partner limits assumed): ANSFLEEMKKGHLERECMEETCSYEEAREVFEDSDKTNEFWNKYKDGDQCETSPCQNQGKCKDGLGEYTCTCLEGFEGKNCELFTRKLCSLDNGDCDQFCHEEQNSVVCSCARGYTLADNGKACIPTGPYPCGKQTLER
In a further data set the test system is mammary carcinoma BN-472. Briefly: Tumor spreading, tumor growth and metastasizing in a rat breast cancer model. The format is in vivo, brown Norwegian rats. The note with it: 0.3 mg/kg daily subcutaneously, 4 weeks. The protocol: 10-25 mm^3 of transplantable metastasising mammary carcinoma BN-472 breast cancer tumor fragments from donor rats were transplanted orthotopically under the mammary fat pad. (Day 0) into 6 to 8 weeks old female brown Norwegian rats. Subcutaneous treatment was started 5 days after tumor inoculation. Each group consisted of 18 animals. The treatment group received a daily dose of 0.3 mg/kg body weight subcutaneously. The treatment-was carried out over a period of 4 weeks.
The dimensions of the subcutaneous tumors and the weight of the animals were determined weekly. At the end of the treatment the animals were sacrificed and tumor weights, organ weights and the number of metastases in relevant tissues were determined.
The data were analyzed using the SigmaStat Vers.2.03 statistical package. Tumor sizes, tumor weights and the weights of the organs were checked with the Shapiro-Wilk W-test for normality of distribution (Royston P., Approximating the Shapiro-Wilk W-test for non-normality. Statistics and Computing 1992, 2:117-119). For each parameter the Shapiro-Wilk W-tests were performed on all data (e.g., tumor weights of all rats), and separately for each treatment group. If one of the P-values was <0.05 the variable was considered to be abnormally distributed and the Mann-Whitney U-test was used to test for significance levels of differences. The Mann-Whitney U-test was used to test for differences in weights of the axillary lymph nodes, intra peritoneal lymph nodes, tumor, and the number of lung foci. Primary and metastatic tumor data at the end of the treatment period were graphically represented using the Box-Whisker graphs, with the box showing the inter-quartile range of values, with a horizontal line at the median value. Whiskers represent the 5th and 95th percentile of values, and the individual values are indicated by dots. The unadjusted level for statistical significance was α=0.05. All tests were two-sided.

Data set [6] deals with rat breast adenocarcinoma cells. As to conditions: after i.v. inoculation of rat breast adenocarcinoma cells; cited from earlier work.
The target in another data set is uPA (Homo sapiens, UniProt P00749). As to conditions: background, literature; read-out: Ki, uPA (inhibition constant); cited from earlier work.
In data set [7] the test system is DU145 tumors (a prostate adenocarcinoma cell line). As to conditions: SCID mice, orally 125 to 250 mg/kg/day; cited from earlier work.
[8] abbreviates: 30 mg/kg, 30 mg/kg oral, read-out: c in the serum 1st analysis.
[9] abbreviates: 30 mg/kg, 30 mg/kg oral, read-out: c in the serum 2nd analysis.
Where [10] appears, read: 300 mg/kg, 300 mg/kg oral, read-out: c in the serum 1st analysis.
[11] abbreviates: 300 mg/kg, 300 mg/kg oral, read-out: c in the serum 2nd analysis.
The mark [12] stands for this setting: list of test substances of Example 17, read-out: Ki human uPA.
Setting [13] is: summary table, read-out: Ki uPA.

pKi: −log10 of the molar value. Counter-ions that a name gives are not always drawn. Like-named read-outs stand apart in the source and are kept apart here.

PK, sequence (P03952 20-638): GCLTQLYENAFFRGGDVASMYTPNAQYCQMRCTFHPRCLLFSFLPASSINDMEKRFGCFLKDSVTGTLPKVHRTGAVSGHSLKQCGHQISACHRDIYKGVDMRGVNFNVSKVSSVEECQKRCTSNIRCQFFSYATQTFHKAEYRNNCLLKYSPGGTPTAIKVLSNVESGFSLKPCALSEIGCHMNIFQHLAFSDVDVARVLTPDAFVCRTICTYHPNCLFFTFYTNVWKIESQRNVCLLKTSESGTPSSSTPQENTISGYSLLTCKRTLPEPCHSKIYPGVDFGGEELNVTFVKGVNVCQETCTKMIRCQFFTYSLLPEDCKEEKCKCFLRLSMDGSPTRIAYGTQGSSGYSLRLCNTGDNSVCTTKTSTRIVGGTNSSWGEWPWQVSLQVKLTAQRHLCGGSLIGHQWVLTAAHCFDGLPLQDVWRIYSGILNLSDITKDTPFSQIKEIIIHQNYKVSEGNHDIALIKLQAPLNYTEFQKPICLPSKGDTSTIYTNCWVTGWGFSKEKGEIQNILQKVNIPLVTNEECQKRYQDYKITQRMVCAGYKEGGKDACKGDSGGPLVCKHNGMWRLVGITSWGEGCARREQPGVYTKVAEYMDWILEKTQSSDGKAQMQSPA

As for `N=C(N)c1cc2c(I)cccc2s1` [B428, 4-iodo-benzo[b]-thiophene-2-carboxamidine], the primary tumor growth entry with mouse mammary carcinoma (administered together with the anti-oestrogen Tamoxifen) is reported as “further decrease of primary tumor growth”. In addition, the “tumor growth and formation of metastases” value with mouse mammary carcinoma (syngenic model for mouse mammary carcinoma) was “decrease in tumor growth and formation of metastases”; in the data set on rat prostate carcinoma, “decrease in tumor growth and formation of metastases”.

With `N=C(N)Nc1ccc(CNC(=O)CNC(=O)[C@@H](CO)NS(=O)(=O)Cc2ccccc2)cc1` [WX-508, benzylsulfonyl-(D)-Ser-Gly-(4-guanidinobenzyl)amide hydrochloride], the “% amount in the basolateral compartment” value is reported as 0.2% in the data set with Caco-2 cell monolayers (first value column), 0.1% in the data set with Caco-2 cell monolayers (second value column) and 0.7% in the data set on Caco-2 cell monolayers (third value column). Besides, the “Caco-2 assay % basolateral” value in the data set with Caco-2 cell monolayers (first series, first value) came to 0.2%; in the data set with Caco-2 cell monolayers (first series, second value), 0.1%; in the data set on Caco-2 cell monolayers (first series, third value), 0.7%. Besides, the pKi on Plasmin [1] was less than 3.70; at Plasmin [1] (summary table) it was less than 3.70; at Plasmin [2], less than 3.00; at PK, 3.74; at Thrombin [3], less than 3.00; on urokinase, 7.40. Moreover, the pKi at Thrombin [5] is less than 3.46; on Thrombin [5] (summary table) it was less than 3.46; at urokinase (uPA) (setting [12]), 7.47; at urokinase (uPA) (read-out: Ki uPA), 7.47; on urokinase (uPA) (setting [13]), 7.47. Besides, the concentration at 20 min in [4] (setting [8]) is 300 ng/mL; in data set [4] (setting [9]), 300 ng/mL; in [4] (setting [10]), 3500 ng/mL. Also, the concentration at 40 min in [4] (setting [8]) is 5700 ng/mL; in [4] (setting [9]) it was 4500 ng/mL; in data set [4] (setting [10]), 7500 ng/mL; in data set [4] (setting [11]) it was 8300 ng/mL. Moreover, the concentration at 60 min was 80 ng/mL in data set [4] (setting [8]), 90 ng/mL in data set [4] (setting [9]), 5400 ng/mL in [4] (setting [10]) and 5800 ng/mL in [4] (setting [11]). Besides, the “c in the serum 1st analysis” value was 41.1 µg/mL in data set [4] (time of sample collection 0), 4.3 µg/mL in data set [4] (time of sample collection 10) and 0.7 µg/mL in data set [4] (time of sample collection 30). Further, the “c in the serum 2nd analysis” value in data set [4] (time of sample collection 0) was 55.5 µg/mL; in data set [4] (time of sample collection 10), 4.7 µg/mL; in data set [4] (time of sample collection 30), 0.2 µg/mL.

With `N=C(N)Nc1ccc(CNC(=O)CNC(=O)C(CO)NS(=O)(=O)Cc2ccc(Cl)cc2)cc1` (stereo not drawn) [WX-C340, 4-Chlorobenzyl-sulfonyl-(D)-Ser-Gly-(4-guanidinobenzyl)amide hydrochloride], the pKi at FXa is 4.47; on PK it was 3.67; at urokinase (uPA) (setting [12]), 8.00; on urokinase (uPA) (read-out: Ki uPA), 8.00; on urokinase (uPA) (setting [13]), 8.00. Further, the “% amount in the basolateral compartment” value came out at 2.4% in the data set on Caco-2 cell monolayers (first value column), 0.2% with Caco-2 cell monolayers (second value column) and 0.1% in the data set on Caco-2 cell monolayers (third value column). The “Caco-2 assay % basolateral” value in the data set on Caco-2 cell monolayers (first series, first value) worked out at 2.4%; in the data set with Caco-2 cell monolayers (first series, second value), 0.2%; in the data set on Caco-2 cell monolayers (first series, third value), 0.1%; in the data set with Caco-2 cell monolayers (second series, first value), 2.3%; with Caco-2 cell monolayers (second series, second value) it was 0.1%; in the data set with Caco-2 cell monolayers (second series, third value), 0.1%. The “Ki Plasmin” value at Plasmin [1] and at Plasmin [1] (summary table) was “no inh. at 100 μM *)” throughout. The “reduction of the axillary lymph node weights” value with mammary carcinoma BN-472 (compared with the control group, P=0.006) was 73%. Further, in the data set with mammary carcinoma BN-472 (compared with the control group, P≦0.001), the “reduction in the number of lung foci” value is 63%. For the same molecule, in the data set on mammary carcinoma BN-472 (P=0.141), the “reduction of the median tumor weight” value came to 29%. Moreover, the concentration at 20 min in [4] (setting [8]) came out at 300 ng/mL; in data set [4] (setting [9]), 500 ng/mL; in data set [4] (setting [10]), 4500 ng/mL. Further, the figures for the concentration at 40 min in [4] (setting [8]), in data set [4] (setting [9]) and in data set [4] (setting [10]) were 300 ng/mL, 800 ng/mL and 4900 ng/mL, respectively. The concentration at 60 min turned out to be 1400 ng/mL in [4] (setting [8]), 2300 ng/mL in data set [4] (setting [9]) and 4300 ng/mL in data set [4] (setting [10]). Besides, the “c in the serum 1st analysis” value in data set [4] (time of sample collection 0) was 51.8 µg/mL; in data set [4] (time of sample collection 10), 5.3 µg/mL; in data set [4] (time of sample collection 30), 1.7 µg/mL. The “Ki Thrombin” value on Thrombin [5] and on Thrombin [5] (summary table) was “no inh. at 100 μM *)” in each case.

With `N=C(N)NC(=O)c1nc(Cl)c(N)nc1N` [amiloride], in data set [6], the “formation of lung metastases” value is given as “prevents the formation of lung metastases”.

As for `N=C(N)c1ccc(N)cc1` [p-Aminobenzamidine], the negative logarithm of the Ki (pKi) on uPA was 4.09. Also, in data set [7], the “growth rate of DU145 tumors” value was “considerable decrease in the growth rate” and the side-effects entry is recorded as “negligibly small”.
